Experiment [1] deals with T1, integrin GPIIb/IIIa (Homo sapiens, UniProt P05106+P08514).
T1 construct: Washed platelets were incubated with various elarofiban doses; host or cells: washed human platelets from PRP of healthy volunteers
The experiment can be described thus: Inhibition by elarofiban of platelet aggregation induced by collagen or CRP trimer SEQ ID 25. The format is cell-based.

For experiment [2], the system named is human platelets. The experiment can be described thus: Human platelet aggregation assay (washed platelets, optical density 650 nm). Particulars: for EC50 ± SEM, platelet aggregation: Table 3. The format is cell-based. As for the experimental part: Human platelet-rich plasma (PRP) concentrate from healthy volunteers was purchased from Biological Specialties, Inc. (Colmar, Pa.). […] The PRP was centrifuged at 730 g for 15 min. The resulting platelet pellet was washed twice in CGS buffer (13 mM sodium citrate, 30 mM glucose, 120 mM NaCl, pH 6.5) containing 1 U/mL apyrase (grade V, Sigma-Aldrich) and resuspended in Tyrode's buffer (140 mM NaCl, 2.7 mM KCl, 12 mM NaHCO3, 0.76 mM Na2HPO4, 5.5 mM dextrose, 5.0 mM Hepes, 0.2% BSA, pH 7.4). The “washed” platelets were diluted to 3×10^8 platelets/mL and kept >45 min at 37° C. before use.
For the assay, 105 μL of washed platelets, 2 mM CaCl2 and […] of fibrinogen were added to a 96-well microtiter plate. Platelet aggregation was initiated by the addition of serial concentrations of native collagen fibrils (equine type I; 92% identity with human collagen sequence; Chrono-log Corp., Havertown, Pa.) or test peptides. Buffer was added to one set of control wells. The assay plate was stirred constantly and intermittently placed in a microplate reader (Softmax, Molecular Devices, Menlo Park, Calif.) to read optical density (650 nm) at 0 and 5 min after the addition of the compound solutions. Aggregation was calculated as the decrease in optical density between the time-0 and 5-min measurements and expressed as percent of aggregation.
Peptides were dissolved in PBS (pH 7) or water (final pH 5) to a concentration of 2 mg/mL. Some samples were heated in a water bath (70° C.) for 10 min, filtered through a 0.45-μm filter and incubated for 24 h or 7 days at 4° C.

“Also recorded” adds a separate entry of the source.

T1 sequence (P08514 32-887 limits assumed): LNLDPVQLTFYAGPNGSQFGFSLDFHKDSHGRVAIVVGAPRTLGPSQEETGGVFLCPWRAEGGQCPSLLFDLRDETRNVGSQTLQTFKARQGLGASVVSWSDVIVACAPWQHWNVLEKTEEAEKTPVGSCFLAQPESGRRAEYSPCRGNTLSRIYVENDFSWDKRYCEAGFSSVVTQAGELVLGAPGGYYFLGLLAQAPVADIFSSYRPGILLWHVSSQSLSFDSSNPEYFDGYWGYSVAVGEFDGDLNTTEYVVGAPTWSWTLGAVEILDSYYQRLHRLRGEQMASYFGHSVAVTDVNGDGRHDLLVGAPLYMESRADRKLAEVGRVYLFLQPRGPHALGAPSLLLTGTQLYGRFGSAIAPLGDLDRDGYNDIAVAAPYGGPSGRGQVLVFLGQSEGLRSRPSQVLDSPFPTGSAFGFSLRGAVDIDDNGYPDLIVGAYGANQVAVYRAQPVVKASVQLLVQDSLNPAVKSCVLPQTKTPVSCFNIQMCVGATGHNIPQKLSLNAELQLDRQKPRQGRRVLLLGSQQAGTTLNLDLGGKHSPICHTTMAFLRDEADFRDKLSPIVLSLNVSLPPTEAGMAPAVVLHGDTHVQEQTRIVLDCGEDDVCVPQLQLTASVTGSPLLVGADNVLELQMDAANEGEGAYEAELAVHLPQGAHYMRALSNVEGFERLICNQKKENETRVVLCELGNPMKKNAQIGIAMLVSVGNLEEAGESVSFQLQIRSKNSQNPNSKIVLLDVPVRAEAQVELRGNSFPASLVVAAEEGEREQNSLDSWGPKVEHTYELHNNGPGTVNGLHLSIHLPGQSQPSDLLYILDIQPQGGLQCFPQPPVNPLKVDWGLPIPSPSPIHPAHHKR
T1 sequence (P08514 891-1039 partner limits assumed): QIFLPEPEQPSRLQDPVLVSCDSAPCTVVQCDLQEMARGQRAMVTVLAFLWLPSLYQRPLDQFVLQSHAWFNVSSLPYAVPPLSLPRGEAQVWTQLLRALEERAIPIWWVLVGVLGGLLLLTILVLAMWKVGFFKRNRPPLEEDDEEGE
T1 sequence (P05106 27-788): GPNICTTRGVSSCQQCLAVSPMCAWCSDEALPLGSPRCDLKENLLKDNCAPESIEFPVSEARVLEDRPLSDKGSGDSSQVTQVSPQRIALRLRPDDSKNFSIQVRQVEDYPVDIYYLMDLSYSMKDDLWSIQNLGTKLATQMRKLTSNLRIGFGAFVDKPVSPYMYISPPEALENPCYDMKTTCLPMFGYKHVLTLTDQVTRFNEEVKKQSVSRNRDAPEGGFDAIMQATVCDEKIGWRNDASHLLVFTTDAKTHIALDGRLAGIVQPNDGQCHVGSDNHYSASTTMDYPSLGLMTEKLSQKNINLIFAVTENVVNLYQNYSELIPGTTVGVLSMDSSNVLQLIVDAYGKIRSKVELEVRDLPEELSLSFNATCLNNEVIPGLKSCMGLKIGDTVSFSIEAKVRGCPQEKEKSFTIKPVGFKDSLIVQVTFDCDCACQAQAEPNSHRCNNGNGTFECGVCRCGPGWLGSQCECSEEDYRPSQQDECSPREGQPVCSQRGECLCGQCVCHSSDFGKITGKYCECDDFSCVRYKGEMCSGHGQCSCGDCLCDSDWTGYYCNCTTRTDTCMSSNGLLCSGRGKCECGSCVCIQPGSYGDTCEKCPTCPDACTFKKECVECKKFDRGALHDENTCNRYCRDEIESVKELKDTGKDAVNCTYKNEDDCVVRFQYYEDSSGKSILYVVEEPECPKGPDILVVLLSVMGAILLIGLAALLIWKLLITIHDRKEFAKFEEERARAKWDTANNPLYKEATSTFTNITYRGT

Turning to `O=C(O)C[C@H](NC(=O)[C@@H]1CCCN(C(=O)CCC2CCNCC2)C1)c1cccnc1` [elarofiban], in experiment [1] (washed platelets incubated with 10, 100 and 1000 nM for 5 min before SEQ ID 25), the “Inhibition of platelet aggregation induced by the CRP trimer having SEQ ID 25” value is “dose-dependent inhibition”. The “Inhibition of platelet aggregation induced by collagen” value in experiment [1] (washed platelets incubated with 10, 100 and 1000 nM for 5 min before collagen) is on record as “dose-dependent inhibition”.

With (Pro-Hyp-Gly)10 [SEQ ID 34], the “Stimulation of platelet aggregation (in words)” value in experiment [2] (Example 6, FIG. 1) is “not effective”. The “EC50 ± SEM, platelet aggregation” value in experiment [2] (peptide in PBS, H + F, pH 7, incubation 24 h) is on record as “failed to aggregate platelets; also recorded: Not Active”.

As for Collagen, the “EC50 values (±SEM), platelet aggregation” value in experiment [2] (Example 6, FIG. 1, Table 4) worked out at 0.56 ± 0.09 µg/mL. Moreover, the “EC50 ± SEM, platelet aggregation” value in experiment [2] (native collagen fibrils (equine type I), no preparation conditions given) came to 0.25 µg/mL.

(Values after patent publication US8076294B2, “Collagen-related peptides and uses thereof” (Advanced Technologies and Regenerative Medicine, LLC., priority 2007, dated 2011).)
